These results are taken from ChEMBL document CHEMBL1139102, “Comparison of N,N'-diarylsquaramides and N,N'-diarylureas as antagonists of the CXCR2 chemokine receptor” (Bioorg Med Chem Lett, 2007).

≈ marks a conversion by molar mass, not a printed value. Where “and” joins values, the source holds several entries; their conditions need not be identical. Equal values may be shown once.

The nature of data set [1]: Volume of distribution at steady state in Sprague-Dawley rat at 4 umol/kg, iv and 8 umol/kg, po. The data set is classed as ADME, organism-based. The conditions noted are these: in vivo, read-out: Vdss.
A short description of data set [2]: Clearance in Sprague-Dawley rat at 4 umol/kg, iv and 8 umol/kg, po. The class given is ADME, organism-based. The note with it: in vivo.
Data set [3] has as its target T1, C-X-C chemokine receptor type 2 (Homo sapiens, UniProt P25025).
T1 sequence (P25025 whole entry): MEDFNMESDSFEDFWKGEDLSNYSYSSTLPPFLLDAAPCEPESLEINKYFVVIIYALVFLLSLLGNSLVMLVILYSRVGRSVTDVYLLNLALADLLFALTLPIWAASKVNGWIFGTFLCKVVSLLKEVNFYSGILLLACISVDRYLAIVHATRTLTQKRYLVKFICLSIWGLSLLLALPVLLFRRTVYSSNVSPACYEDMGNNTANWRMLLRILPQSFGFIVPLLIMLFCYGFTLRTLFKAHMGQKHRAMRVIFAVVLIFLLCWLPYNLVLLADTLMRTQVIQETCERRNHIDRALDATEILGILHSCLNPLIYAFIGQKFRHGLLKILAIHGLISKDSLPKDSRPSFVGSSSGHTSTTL
As to the kind of experiment: Displacement of [125I]IL8 from human recombinant CXCR2 expressed in CHO cells. The data set is classed as cell-based. A general note: Loss of bound radioactivity is the signal in a displacement assay; it reports binding, not function.

A short description of data set [4]: Aqueous solubility in phosphate buffer at pH 7.4. The data set is classed as physicochemical.
The nature of another data set: in vivo. The conditions noted are these: Sprague-Dawley, rat, po, 8 umol/kg.
Data set [5] is described as follows: Dissociation constant, pKa at pH 7.4. The data set is classed as physicochemical.

Turning to `CN1CCCN(S(=O)(=O)c2c(Cl)ccc(Nc3c(Nc4ccccc4Cl)c(=O)c3=O)c2O)CC1.Cl`, the Vd in data set [1] was 0.31 L/kg. The clearance in data set [2] is 4 mL/min/kg. The IC50 (as a rule, the midpoint of a concentration-inhibition curve) in data set [3] was 20 nM. For the same molecule, the solubility (in general, the dissolved amount per volume that the medium holds) in data set [4] was found to be 160 µM.
In the case of `N#Cc1ccc(Nc2c(Nc3ccccc3Br)c(=O)c2=O)c(O)c1`, the Vd in data set [1] was 0.15 L/kg. Moreover, the clearance in data set [2] came to 15 mL/min/kg. Moreover, the 50% inhibitory concentration (IC50) in data set [3] was 15 nM and 36 nM. The molecule also showed a solubility in data set [4] of 14 µM (≈ 5.38 µg/mL).
As to `Cc1ccc(O)c(Nc2c(Nc3ccccc3)c(=O)c2=O)c1`, the IC50 in data set [3] was 308 nM.
With `NC(=O)c1c(Cl)ccc(Nc2c(Nc3ccccc3)c(=O)c2=O)c1O`, the half-inhibitory concentration (IC50) in data set [3] amounted to 14 nM. This molecule displayed a solubility in data set [4] of 88 µM (≈ 31.5 µg/mL).
Take `Cc1cccc(O)c1NC(=O)Nc1ccccc1`: in data set [3], the half-maximal inhibitory concentration (IC50) is greater than 30000 nM.
Turning to `O=C(c1cccc(Nc2c(Nc3ccccc3C(F)(F)F)c(=O)c2=O)c1O)N1CCCC1`, in data set [1], the Vd turned out to be 0.66 L/kg. In addition, the clearance in data set [2] came to 45 mL/min/kg. In data set [4], this molecule came in with a solubility of 86 µM (≈ 38.3 µg/mL).
Turning to `N#Cc1cccc(NC(=O)Nc2ccccc2)c1O`, the IC50 in data set [3] was found to be 276 nM.
With `O=C(Nc1ccccc1O)Nc1ccccc1Br`, the IC50 in data set [3] is greater than 9000 nM.
Same read-out and setting: then `Cc1ccc(NC(=O)Nc2ccccc2)c(O)c1`, with 25000 nM; and `O=C(Nc1ccccc1)Nc1cc(Cl)ccc1O`, with greater than 30000 nM.
Regarding `O=c1c(Nc2ccc([N+](=O)[O-])cc2O)c(Nc2ccccc2Br)c1=O`, the IC50 in data set [3] was determined as 37 nM.
For the molecule `O=C(c1c(Cl)ccc(Nc2c(Nc3ccccc3Br)c(=O)c2=O)c1O)N1CCCC1`, in data set [3], the IC50 worked out at 28 nM. Besides, the solubility in data set [4] came to 143 µM (≈ 70.2 µg/mL).
Regarding `O=c1c(Nc2ccccc2)c(Nc2cc(Cl)ccc2O)c1=O`, the concentration for half-maximal inhibition (IC50) in data set [3] was determined as 54 nM.
As to `Cl.O=c1c(Nc2ccccc2)c(Nc2ccc(Cl)c(S(=O)(=O)N3CCC(N4CCCCC4)CC3)c2O)c1=O`, the bioavailability (commonly dose-corrected exposure relative to a reference, in per cent) in the data set “in vivo” was 5%. Moreover, the Vd in data set [1] is 0.24 L/kg. The same molecule gave a clearance in data set [2] of 1.2 mL/min/kg. In addition, the solubility in data set [4] was 7 µM.
As to `O=c1c(Nc2ccccc2)c(Nc2cc(Cl)c([N+](=O)[O-])cc2O)c1=O`, in data set [3], the 50% inhibitory concentration (IC50) is 52 nM.
Take `O=c1c(Nc2ccc(Cl)cc2O)c(Nc2ccccc2Br)c1=O`: the IC50 in data set [3] was 32 nM. In data set [4], this molecule had a solubility of 3 µM (≈ 1.18 µg/mL).
For the molecule `N#Cc1ccc(Nc2c(O)c(=O)/c2=N\c2ccccc2)c(O)c1`, the IC50 in data set [3] was determined as 15 nM. For the same molecule, in data set [5], the pKa (as a rule, the pH at which an ionisable group is half protonated) worked out at 7.09.
In “in vivo”, `COCCNS(=O)(=O)c1c(Cl)ccc(Nc2c(Nc3ccccc3)c(=O)c2=O)c1O` came in with a bioavailability of 23%. The Vd in data set [1] is 0.14 L/kg. Further, the clearance in data set [2] stood at 0.6 mL/min/kg. For the same molecule, in data set [3], the IC50 worked out at 8 nM. Moreover, the solubility in data set [4] came to 73 µM (≈ 33 µg/mL).
As to `CCCc1ccccc1Nc1c(Nc2ccc(Cl)c(S(=O)(=O)N3CCN(CC)CC3)c2O)c(=O)c1=O.O=C(O)C(F)(F)F`, the Vd in data set [1] was 0.89 L/kg. Besides, in data set [2], the clearance turned out to be 7 mL/min/kg. In data set [3], the concentration for half-maximal inhibition (IC50) turned out to be 8 nM. Further, the concentration in solution in data set [4] (solubility) was 78 µM.
Turning to `Cc1ccc(Nc2c(Nc3ccccc3)c(=O)c2=O)c(O)c1`, the half-maximal inhibitory concentration (IC50) in data set [3] was 205 nM.
On to `CN1CCCN(S(=O)(=O)c2c(Cl)ccc(Nc3c(Nc4ccccc4Br)c(=O)c3=O)c2O)CC1.Cl`, for which the Vd in data set [1] stood at 0.24 L/kg. In data set [2], this molecule came in with a clearance of 4 mL/min/kg. Further, the IC50 in data set [3] turned out to be 10 nM. The same molecule gave a solubility in data set [4] of 138 µM.
For the molecule `CN1CCCN(C(=O)c2cccc(Nc3c(Nc4ccccc4)c(=O)c3=O)c2O)CC1.O=C(O)C(F)(F)F`, the Vd in data set [1] came to 0.33 L/kg. The molecule further gave a clearance in data set [2] of 15 mL/min/kg. Besides, the IC50 in data set [3] amounted to 44 nM. Besides, in data set [4], the solubility was determined as 178 µM.
`N#Cc1cccc(Nc2c(Nc3ccccc3)c(=O)c2=O)c1O`: in data set [3], the IC50 is 32 nM.
As to `CN1CCN(S(=O)(=O)c2c(F)ccc(Nc3c(Nc4ccccc4Br)c(=O)c3=O)c2O)CC1.O=C(O)C(F)(F)F`, the concentration for half-maximal inhibition (IC50) in data set [3] stood at 13 nM. The solubility in data set [4] is 44 µM.
In the case of `O=c1c(O)c(Nc2ccccc2)/c1=N/c1ccccc1O`, the concentration for half-maximal inhibition (IC50) in data set [3] turned out to be 235 nM. The pKa in data set [5] worked out at 8.6.
`O=c1c(Nc2ccccc2)c(Nc2c(O)cccc2[N+](=O)[O-])c1=O`: the concentration for half-maximal inhibition (IC50) in data set [3] came to 358 nM.
With `CN1CCN(C(=O)c2cccc(Nc3c(Nc4ccccc4)c(=O)c3=O)c2O)CC1.O=C(O)C(F)(F)F`, the IC50 in data set [3] is 27 nM. The solubility in data set [4] turned out to be 121 µM.
For the molecule `O=C(Nc1ccccc1)Nc1c(O)cccc1[N+](=O)[O-]`, the half-maximal inhibitory concentration (IC50) in data set [3] is greater than 30000 nM.
With `O=c1c(O)c(Nc2ccc([N+](=O)[O-])cc2O)/c1=N/c1ccccc1`, the IC50 in data set [3] came out at 22 nM.
`Cc1cccc(O)c1Nc1c(Nc2ccccc2)c(=O)c1=O`: the IC50 in data set [3] is 1720 nM.
As to `Cc1ccc(O)c(NC(=O)Nc2ccccc2)c1`, in data set [3], the IC50 was greater than 30000 nM.
With `O=C(Nc1ccccc1)Nc1ccccc1O`, the 50% inhibitory concentration (IC50) in data set [3] is greater than 30000 nM.
In the case of `Cc1ccccc1Nc1c(Nc2ccc(C)c(S(=O)(=O)N(C)C)c2O)c(=O)c1=O`, the Vd in data set [1] worked out at 0.25 L/kg. Besides, in data set [2], the clearance was 4 mL/min/kg. Moreover, the half-maximal inhibitory concentration (IC50) in data set [3] turned out to be 15 nM. In addition, the solubility in data set [4] was 10 µM (≈ 4.15 µg/mL).
For `O=C(Nc1ccccc1)Nc1cc(Cl)c([N+](=O)[O-])cc1O`, the IC50 in data set [3] amounted to 950 nM.
Still for that read-out and setting: then `O=c1c(Nc2ccccc2O)c(Nc2ccccc2Br)c1=O`, with 51 nM.
